The values that follow come from patent EP2131831B1, “[…] ACIDS AND POLY-L-LYSINE FOR COMBATING […]-ORGANISMS” (priority 2007, dated 2008).

The test system of one assay is Staphylococcus aureus. Briefly: Lysis zone on agar plate. Particulars: fatty acid on poly-L-Lysine 5×10^-3M, 50µl, 16 h at 37°. It is filed as cell-based.
In the next assay the test system is Escherichia coli. Description: Lysis zone on agar plate. It is filed as cell-based. Particulars: fatty acid on poly-L-Lysine 5×10^-3M, 50µl, 16 h at 37°.
Another assay relates to Pseudomonas aeruginosa. Briefly: Lysis zone on agar plate. It is filed as cell-based. As to conditions: fatty acid on poly-L-Lysine 5×10^-3M, 50µl, 16 h at 37°.
Another assay has as its system Candida albicans. As to conditions: fatty acid on poly-L-Lysine 5×10^-3M, 50µl, 16 h at 37°. The source says:
(§1) Les différents essais ont été réalisés selon le mode opératoire décrit en suivant. Les effets anti-bactéricides et anti-fongiques des solutions testées ont été évalués sur des boîtes contenant des milieux de cultures appropriés à la croissance : • gélose chocolat haemophilus pour la culture de Neisseria, • gélose BCP pour les germes peu exigeants, • gélose Mueller Hinton 2 (MH2-F) pour la majorité des souches bactériennes sauf Neisseria et les streptocoques, • gélose columbia ANC (COL ANC-F) pour les streptocoques, • gélose Sabouraud gentamicine chloramphénicol (SAB GENTA CHL-F) pour les candidas albicans et les levures en général, et • milieu Leowenstein, Coletsos pour Mycobacterium tuberculosis.
(§2) Les boîtes sont recouvertes par 1ml de solution bactérienne ou mycosique à la concentration de 0,5 à 1 de Mac Farland (lecture au densitomètre) soit 1,5×10^8 bactéries/ml.
(§3) La boîte est ensuite séchée 15 minutes à 37°, et on applique 2 gouttes (50µl) de chaque solution à tester.
(§4) La boîte de culture est recouverte après 16 heures d'incubation à 37°.
(§5) Chaque plage de lyse due à l'activité anti-bactérienne ou anti-fongique des conjugués est mesurée. La lecture de l'effet bactéricide ou antifongique est mesurée en cm^2.

Another assay deals with Enterobacter Hafniae. Particulars: fatty acid on poly-L-Lysine 5×10^-3M, 50µl, 16 h at 37°.
Excerpt: as §1, §2, §3, §4, §5

For a further assay, the system named is Klebsiella oxytoca. As to conditions: fatty acid on poly-L-Lysine 5×10^-3M, 50µl, 16 h at 37°.
Excerpt: as §1, §2, §3, §4, §5

For the next assay, the system named is Morganella Morganii. As to conditions: fatty acid on poly-L-Lysine 5×10^-3M, 50µl, 16 h at 37°.
Excerpt: as §1, §2, §3, §4, §5

For the next assay, the system named is Proteus Mirabilis. As to conditions: fatty acid on poly-L-Lysine 5×10^-3M, 50µl, 16 h at 37°.
Excerpt: as §1, §2, §3, §4, §5

A further assay has as its system Streptocoque B. As to conditions: fatty acid on poly-L-Lysine 5×10^-3M, 50µl, 16 h at 37°.
Excerpt: as §1, §2, §3, §4, §5

Another assay concerns Streptocoque D. As to conditions: fatty acid on poly-L-Lysine 5×10^-3M, 50µl, 16 h at 37°.
Excerpt: as §1, §2, §3, §4, §5

The next assay relates to Citrobacter koserii. Particulars: Citro bacter koserii; fatty acid on poly-L-Lysine 5×10^-3M; 50µl; 16 h at 37°.
The test system of another assay is Nesseria. As to conditions: fatty acid on poly-L-Lysine 5×10^-3M, 50µl, 16 h at 37°.
Assay [1] deals with souche multirésistante de staphylococcus epidermidis. As to conditions: each component's concentration within the combined solution capryl-poly-L-Lysine-lauryl + pyruvate-poly-L-Lysine.
The subject of assay [2] is Escherichia coli ou Staphylococcus aureus. Briefly: Visual comparison of bactericidal activity, free fatty acids vs conjugates. On the set-up: key to Activité bactéricide sur Escherichia coli ou Staphylococcus aureus de l'acide gras seul: 0: pas d'activité, culture négative; +: correspond à 10^3 colonies; ++: correspond à 10^4 colonies; +++: correspond à 10^6 colonies; ++++: correspond à 10^7 colonies. The format is cell-based. Particulars: visual scale; for Activité bactéricide sur Escherichia coli ou Staphylococcus aureus du conjugué: conjugate of the named fatty acid according to the invention; for Activité bactéricide sur Escherichia coli ou Staphylococcus aureus de l'acide gras seul: free, unbound fatty acid. The text has this:
Les résultats sont évalués visuellement selon l'échelle suivante : • 0 pas d'activité, culture négative • + correspond à 10^3 colonies • ++ correspond à 10^4 colonies • +++ correspond à 10^6 colonies, et • ++++ correspond à 10^7 colonies.

Turning to pyruvyl-poly-L-Lysine, the plage de lyse in the assay on Staphylococcus aureus is on record as 2,13 cm^2; with Escherichia coli, 2,09 cm^2; with Pseudomonas aeruginosa, 1,32 cm^2; in the assay on Candida albicans, 2,46 cm^2; in the assay on Enterobacter Hafniae, 2,27 cm^2; in the assay with Klebsiella oxytoca, 1,33 cm^2. The plage de lyse in the assay on Morganella Morganii is given as 0 cm^2; in the assay on Proteus Mirabilis, 0 cm^2; in the assay on Streptocoque B it was 1,77cm^2 qqls colonies; with Streptocoque D, 2,27 cm^2; with Citrobacter koserii it was 1,54 cm^2; in the assay with Alcalescens Diaspar, 1,53cm^2. The plage de lyse in the assay on Nesseria is 2,01cm^2. The concentration minimale inhibitrice in [1] is < 1,25×10^4 M.
Turning to `CCCCCCCCCCCC(=O)O` [Acide Laurique], in assay [2], the “Activité bactéricide sur Escherichia coli ou Staphylococcus aureus du conjugué” value was “++ (correspond à 10^4 colonies)” and the “Activité bactéricide sur Escherichia coli ou Staphylococcus aureus de l'acide gras seul” value was “++++ (correspond à 10^7 colonies)”.
For butyrate [C4 = butyrate], in [2], the “Activité bactéricide sur Escherichia coli ou Staphylococcus aureus du conjugué” value is listed as “+++ (correspond à 10^6 colonies)” and the “Activité bactéricide sur Escherichia coli ou Staphylococcus aureus de l'acide gras seul” value is recorded as 0.
For `CCCCCC(=O)O` [Acide Caproïque], in assay [2], the “Activité bactéricide sur Escherichia coli ou Staphylococcus aureus du conjugué” value is reported as “+++ (correspond à 10^6 colonies)” and the “Activité bactéricide sur Escherichia coli ou Staphylococcus aureus de l'acide gras seul” value is recorded as “++ (correspond à 10^4 colonies)”.
Consider Farnesyl-cystéine, for which, in [2], the “Activité bactéricide sur Escherichia coli ou Staphylococcus aureus du conjugué” value is reported as “++ (correspond à 10^4 colonies)” and the “Activité bactéricide sur Escherichia coli ou Staphylococcus aureus de l'acide gras seul” value worked out at 0.
Consider “acétyl-poly-L-Lysine [Acétyl- poly-L-Lysine]”, for which the plage de lyse with Staphylococcus aureus is reported as 1,68 cm^2; with Escherichia coli, 0 cm^2; with Candida albicans, 1,97cm^2; in the assay with Enterobacter Hafniae it was 2,71 cm^2; in the assay on Klebsiella oxytoca it was 3,14 cm^2; with Morganella Morganii, 0 cm^2. In addition, the plage de lyse in the assay on Proteus Mirabilis is reported as 0 cm^2; with Streptocoque B, 3,14 cm^2 colonies; in the assay on Streptocoque D, 4,15cm^2; in the assay with Citrobacter koserii, 1,77 cm^z cm^2; in the assay on Alcalescens Diaspar, 1,4cm^2; with Nesseria it was 2,27cm^2.
As for propionate [C3 = propionate], in assay [2], the “Activité bactéricide sur Escherichia coli ou Staphylococcus aureus du conjugué” value is on record as “+++ (correspond à 10^6 colonies)” and the “Activité bactéricide sur Escherichia coli ou Staphylococcus aureus de l'acide gras seul” value was 0.
For the compound `CC(=O)O` [C2 = acetate], in assay [2], the “Activité bactéricide sur Escherichia coli ou Staphylococcus aureus du conjugué” value was “+++ (correspond à 10^6 colonies)” and the “Activité bactéricide sur Escherichia coli ou Staphylococcus aureus de l'acide gras seul” value came to 0.
Regarding “capryl-poly-L-Lysine-lauryl [capryl-poly-Lysine-lauryl]”, the concentration minimale inhibitrice in assay [1] is on record as < 1,25×10^5 M.
Consider `CCCCC(=O)O` [C5 = acide valérique, acide valérique], for which, in [2], the “Activité bactéricide sur Escherichia coli ou Staphylococcus aureus du conjugué” value is “+++ (correspond à 10^6 colonies)” and the “Activité bactéricide sur Escherichia coli ou Staphylococcus aureus de l'acide gras seul” value is 0.
Take `CCCCCCCCCCCCCCCC(=O)O` [Acide Palmitique]: in assay [2], the “Activité bactéricide sur Escherichia coli ou Staphylococcus aureus du conjugué” value is “+ (correspond à 10^3 colonies)” and the “Activité bactéricide sur Escherichia coli ou Staphylococcus aureus de l'acide gras seul” value was determined as 0.
With `CCCCCCCCCC(=O)O` [Acide Caprique], in assay [2], the “Activité bactéricide sur Escherichia coli ou Staphylococcus aureus du conjugué” value is “+++ (correspond à 10^6 colonies)” and the “Activité bactéricide sur Escherichia coli ou Staphylococcus aureus de l'acide gras seul” value is “++++ (correspond à 10^7 colonies)”.
Consider “propionyl-poly-L-Lysine [Propionylpoy-L-lysine]”, for which the plage de lyse in the assay with Staphylococcus aureus was 2,3 cm^2; in the assay on Pseudomonas aeruginosa it was 0 cm^2; with Candida albicans, 2,13cm^2; in the assay with Enterobacter Hafniae it was 1,12 cm^2; with Klebsiella oxytoca it was 0 cm^2; in the assay with Morganella Morganii, 0 cm^2. The plage de lyse in the assay with Proteus Mirabilis is 0 cm^2; in the assay on Streptocoque B, 0 cm^2; with Streptocoque D, 0 cm^2; with Citrobacter koserii it was 0 cm^2; with Alcalescens Diaspar, 1,13cm^2 inhibition partielle; in the assay with Nesseria, 1,13 cm^2.
On to `CCCCCCCC/C=C\CCCCCCCC(=O)O` [Acide Oléique], for which, in assay [2], the “Activité bactéricide sur Escherichia coli ou Staphylococcus aureus du conjugué” value was “+ (correspond à 10^3 colonies)” and the “Activité bactéricide sur Escherichia coli ou Staphylococcus aureus de l'acide gras seul” value is given as “+ (correspond à 10^3 colonies)”.
With Acide Palmitoléique, in [2], the “Activité bactéricide sur Escherichia coli ou Staphylococcus aureus du conjugué” value is “+++ (correspond à 10^6 colonies)” and the “Activité bactéricide sur Escherichia coli ou Staphylococcus aureus de l'acide gras seul” value is “++ (correspond à 10^4 colonies)”.
For `CCCCCCCCCCCCCC(=O)O` [Acide Myristique], in assay [2], the “Activité bactéricide sur Escherichia coli ou Staphylococcus aureus du conjugué” value was “+ (correspond à 10^3 colonies)” and the “Activité bactéricide sur Escherichia coli ou Staphylococcus aureus de l'acide gras seul” value was “+ (correspond à 10^3 colonies)”.
lactyl-Poly-L-Lysine: the plage de lyse in the assay on Staphylococcus aureus is 1,82 cm^2; in the assay on Escherichia coli it was 1,92 cm^2; with Pseudomonas aeruginosa, 2,34 cm^2; in the assay with Candida albicans, 1,05cm^2; in the assay with Enterobacter Hafniae, 1,44cm^2; in the assay on Klebsiella oxytoca, 0 cm^2. Also, the plage de lyse in the assay on Morganella Morganii is 0 cm^2; in the assay on Proteus Mirabilis, 0 cm^2; in the assay on Streptocoque B it was “peu sensible”; in the assay with Streptocoque D, 2,01 cm^2; with Citrobacter koserii it was 1,13 cm^2; with Alcalescens Diaspar, 1,53cm^2. Moreover, in the assay with Nesseria, the plage de lyse is 1,65cm^2.
For the compound Acide Caprylique, in assay [2], the “Activité bactéricide sur Escherichia coli ou Staphylococcus aureus du conjugué” value is “+++ (correspond à 10^6 colonies)” and the “Activité bactéricide sur Escherichia coli ou Staphylococcus aureus de l'acide gras seul” value was “+++ (correspond à 10^6 colonies)”.
On to “butyryl-poly-L-Lysine [Butyryl- poly-L-Lysine]”, for which the plage de lyse is 1,82 cm^2 in the assay on Staphylococcus aureus; 2,65 cm^2 with Escherichia coli; 2,3 cm^2 in the assay on Candida albicans; 2,03 cm^2 in the assay with Enterobacter Hafniae; 0 cm^2 in the assay on Klebsiella oxytoca; 0 cm^2 in the assay with Morganella Morganii. The plage de lyse with Proteus Mirabilis was 0 cm^2; in the assay on Streptocoque B, 1,33 cm^2 qqls colonies; with Streptocoque D it was 0 cm^2; with Citrobacter koserii, 1,77 cm^2; in the assay on Alcalescens Diaspar, 0,85 cm^2; in the assay on Nesseria, 0,78 cm^2.
